Tested on: PC9
Experiment: cell count fold change with erlotinib, miRNA mimic vs non-targeting control (log2 ratio); higher = more drug-tolerant survivors than NTC
Conditions: erlotinib 1 µM; 72 h drug + 72 h drug-free recovery; perturbation: miRNA mimic

| Sequence | cell count fold change with erlotinib |
| --- | --- |
| CGUGUAUUUGACAAGCUGAGUU | -5.21 |
| UGAGUGCCGGUGCCUGCCCUG | -2.45 |
| AAGUGAUCUAAAGGCCUACAU | -3.48 |
| AAAGUAGCUGUACCAUUUGC | -2.51 |
| UUGUGUCAAUAUGCGAUGAUGU | -3.39 |
| UUGUGCUUGAUCUAACCAUGU | -1.88 |
| ACAAAGUGCUUCCCUUUAGAGUGU | -0.659 |
| AAUCAUACAGGGACAUCCAGUU | -1.33 |
| AGUCAUUGGAGGGUUUGAGCAG | -3.38 |
| CCUCUGAAAUUCAGUUCUUCAG | -0.736 |
| UUCUCAAGGAGGUGUCGUUUAU | -1.83 |
| UAGGCAGUGUCAUUAGCUGAUUG | -1.83 |
| CUGGAGAUAUGGAAGAGCUGUGU | -0.316 |
| CAUCUUACUGGGCAGCAUUGGA | -2.32 |
| UUCUCGAGGAAAGAAGCACUUUC | -1.6 |
| AAAGUGCUGCGACAUUUGAGCGU | 0.0776 |
| UGUGCGCAGGGAGACCUCUCCC | -1.77 |
| AACCCGUAGAUCCGAUCUUGUG | -0.33 |
| UUUGUGACCUGGUCCACUAACC | -2.85 |
| UGAGACCUCUGGGUUCUGAGCU | -0.719 |
| AACAUAGAGGAAAUUCCACGU | -1.33 |
| UUCUCCAAAAGAAAGCACUUUCUG | -1.65 |
| GUGAGGACUCGGGAGGUGG | -3.05 |
| UAGGUUAUCCGUGUUGCCUUCG | -2.37 |
| CAUCUUCCAGUACAGUGUUGGA | 0.0817 |

| Sequence | cell count fold change with erlotinib |
| --- | --- |
| UCUCUGGGCCUGUGUCUUAGGC | 0.808 |
| AUUCCUAGAAAUUGUUCAUA | 0.458 |
| UUUCCAUAGGUGAUGAGUCAC | -0.48 |
| AAGGAGCUCACAGUCUAUUGAG | -1.13 |
| GUGGCUGCACUCACUUCCUUC | -0.272 |
| UGUUUUGAUAACAGUAAUGU | -1.27 |
| CAAAGCGCUUCCCUUUGGAGC | -0.111 |
| CUCUAGAGGGAAGCACUUUCUC | -0.525 |
| AGGUUGUCCGUGGUGAGUUCGCA | -0.399 |
| UGACAACUAUGGAUGAGCUCU | -1.88 |
| CACACACUGCAAUUACUUUUGC | -3.13 |
| UAGCAGCACAGAAAUAUUGGC | -1.13 |
| UAGAUAAAAUAUUGGUACCUG | -1.41 |
| UCCAGCAUCAGUGAUUUUGUUG | -2.81 |
| AAACCUGUGUUGUUCAAGAGUC | -0.0774 |
| GAUUAGGGUGCUUAGCUGUUAA | -2.53 |
| AGGCGGAGACUUGGGCAAUUG | -3.29 |
| UUCCUAUGCAUAUACUUCUUUG | -1.18 |
| UAGCAGCACGUAAAUAUUGGCG | -2.26 |
| UAACUGGUUGAACAACUGAACC | -0.919 |
| UGAGAUGAAGCACUGUAGCUC | -1.52 |
| GUUGGAGGAUGAAAGUACGGAGUGAU | -2.24 |
| UUGCAGCUGCCUGGGAGUGACUUC | -2.6 |
| UGAGCCCUGUCCUCCCGCAG | -3.68 |
| CUCCAGAGGGAAGUACUUUCU | -1.13 |

| Sequence | cell count fold change with erlotinib |
| --- | --- |
| UUGGGAUCAUUUUGCAUCCAUA | 0.519 |
| AACUGGCCCUCAAAGUCCCGCU | -0.145 |
| CUCAGUAGCCAGUGUAGAUCCU | -4.13 |
| CUCUAGAGGGAAGCGCUUUCUG | -1.78 |
| AUCAUAGAGGAAAAUCCACGU | -3.73 |
| CGGGGCAGCUCAGUACAGGAU | 0.97 |
| GAUUGCUCUGCGUGCGGAAUCGAC | -1.68 |
| GAAAGUGCUUCCUUUUAGAGGC | -0.077 |
| UACUCAGGAGAGUGGCAAUCAC | -0.848 |
| CAACCUGGAGGACUCCAUGCUG | -0.199 |
| UGGGUCUUUGCGGGCGAGAUGA | -0.809 |
| AAAGUGCAUCCUUUUAGAGGUU | -0.881 |
| GAAGGCGCUUCCCUUUAGAGCG | -2.22 |
| CCAGUAUUAACUGUGCUGCUGA | -1.92 |
| AUGUAGGGCUAAAAGCCAUGGG | -1.51 |
| AACAUUCAACGCUGUCGGUGAGU | -3.99 |
| UUACAGUUGUUCAACCAGUUACU | -2.68 |
| UGUAGUGUUUCCUACUUUAUGGA | -4.91 |
| AGUUUUGCAUAGUUGCACUACA | -2.57 |
| AAAGCGCUUCCCUUCAGAGUG | -1.78 |
| CGAAAACAGCAAUUACCUUUGC | -2.67 |
| CAGUGCAAUAGUAUUGUCAAAGC | -2.72 |
| UAGCUUAUCAGACUGAUGUUGA | -2.58 |
| UAUGGCUUUUUAUUCCUAUGUGA | -1.4 |
| UCGGAUCCGUCUGAGCUUGGCU | 0.402 |

| Sequence | cell count fold change with erlotinib |
| --- | --- |
| CAAAGAGGAAGGUCCCAUUAC | -0.517 |
| UGGAAUGUAAGGAAGUGUGUGG | -0.89 |
| AGAUCAGAAGGUGAUUGUGGCU | -0.11 |
| AGACUUCCCAUUUGAAGGUGGC | -0.166 |
| CUGGUUUCACAUGGUGGCUUAG | -2.28 |
| UACGUCAUCGUUGUCAUCGUCA | -0.419 |
| CUAGUGAGGGACAGAACCAGGAUUC | -2.96 |
| UAAGUGCUUCCAUGUUUGAGUGU | -0.491 |
| GUGCAUUGCUGUUGCAUUGC | -2.3 |
| AGCUGGUGUUGUGAAUCAGGCCG | -0.131 |
| CAGUGCAAUGUUAAAAGGGCAU | -3.02 |
| AGUUUUGCAGGUUUGCAUUUCA | -0.889 |
| CCCCCACAACCGCGCUUGACUAGCU | -0.523 |
| GAAAGCGCUUCUCUUUAGAGG | -0.525 |
| AGCAGCAUUGUACAGGGCUAUGA | -0.577 |
| CUGAAGUGAUGUGUAACUGAUCAG | -3.44 |
| UUAUGGUUUGCCUGGGACUGAG | -0.886 |
| AAGCAUUCUUUCAUUGGUUGG | -1.49 |
| UGGAGAGAAAGGCAGUUCCUGA | -1.98 |
| CAGCAGCAAUUCAUGUUUUGAA | -3.25 |
| UAAGGUGCAUCUAGUGCAGAUAG | -4.51 |
| UCACUCCUCUCCUCCCGUCUU | -4.11 |
| UAAAGAGCCCUGUGGAGACA | -1.03 |
| AAAAGCUGGGUUGAGAGGGCGA | -2.14 |
| CUUAUGCAAGAUUCCCUUCUAC | -1.68 |

| Sequence | cell count fold change with erlotinib |
| --- | --- |
| AGGGGUGCUAUCUGUGAUUGA | 0.941 |
| UAGUGCAAUAUUGCUUAUAGGGU | -3.19 |
| UGAGCGCCUCGACGACAGAGCCG | -1.23 |
| UAUGUGCCUUUGGACUACAUCG | -3.93 |
| AUCACAUUGCCAGGGAUUUCC | -1.61 |
| AAAAACUGUAAUUACUUUU | 0.031 |
| AGGCAGCGGGGUGUAGUGGAUA | 1.05 |
| AGGGGUGGUGUUGGGACAGCUCCGU | -0.171 |
| GGUGCAGUGCUGCAUCUCUGGU | -1.52 |
| UCCCUGUCCUCCAGGAGCUCACG | -1.84 |
| AAAGUGCUUCUCUUUGGUGGGU | 0.279 |
| GUGUGCGGAAAUGCUUCUGCUA | -2.43 |
| GUGAGGGCAUGCAGGCCUGGAUGGGG | -0.605 |
| AUGGUUCCGUCAAGCACCAUGG | -2.16 |
| AUGCUGACAUAUUUACUAGAGG | -1.82 |
| UGUAAACAUCCUACACUCUCAGC | 0.35 |
| AGAGCUUAGCUGAUUGGUGAAC | -3.36 |
| CAGGGAGGUGAAUGUGAU | 1.99 |
| CUCUCACCACUGCCCUCCCACAG | -1.11 |
| UGGGCGUAUCUGUAUGCUA | -0.274 |
| AAAGUGCUUCCUUUUAGAGGG | -0.225 |

From the supplement of paper PMC4976141
